BindingDB's records for doi:10.1021/jm00128a027 (Rorer Central Research, 1989)

Target: Polyunsaturated fatty acid 5-lipoxygenase (Cavia porcellus)
Test: In vitro inhibition of polymorphonuclear leukocyte derived guinea pig 5-lipoxygenase

Row | IC50 [nM] | SMILES
1 | 50 | O=C(c1ccc(OCc2ccccc2)cc1)N(O)CCc1ccccc1
2 | 130 | O=C(CCCc1ccccc1)N(O)CCc1ccccc1
